# Measured values from patent US9433686B2, “Methods for treating castration resistant prostate cancer and metastasis by reducing B-cell number and/or function” (The Regents of the University of California, priority 2011, dated 2016).
# Legend:
# [1] = test system: IKK; assay: IκBα phosphorylation in PMA-stimulated Myc-CaP cells; type: cell-based, mouse; details: 1 hr pre-treatment, AG490 100 μM, PMA 10 ng/ml 10 min
# Procedure: (§1) FIG. 15. Selectivity of IKKβ and STAT3 phosphorylation inhibitors. A. Myc-CaP cells were cultured to 60% confluency and pre-treated for 1 hr with AG490 (100 μM) or ML120B (20 μM), followed by stimulation with PMA (10 ng/ml) for 10 min. Cells were collected and IκBα phosphorylation was analyzed. B. Myc-CaP cells were pre-treated with AG490 or ML120B and after 1 hr, were stimulated with IL-6 (20 ng/ml) for 30 min. Cells were collected and STAT3 phosphorylation was analyzed by immunoblotting.
# (§2) Total tissue RNA was prepared using RNAeasy (Qiagen). Quantitative PCR was performed as described^38. Cells and tumors were lysed and analyzed by SDS-polyacrylamide gel electrophoresis and immunoblotting^38 with antibodies to histone H3, α-tubulin, STAT3 (Santa Cruz Biotechnology), ERK, phospho-ERK, AKT, phospho-AKT, phospho-STAT3 (Cell Signaling). Nuclear extracts were prepared and analyzed for NF-κB DNA-binding as described^39.
# [2] = test system: STAT3; assay: STAT3 phosphorylation in myc-CaP tumors after castration (immunohistochemistry); type: in vivo, FVB mice; details: phospho-STAT3 staining
# Text: FIG. 14. STAT3 activation and its role in CR-CaP emergence. A,B WT+Ikkβ^F/F and WT+Ikkβ^Δ/Δ radiation chimeras (n=10 each group) bearing myc-CaP allografts were established as above and injected with poly(IC) to delete IKKβ[…] in BMDC before castration or sham operation. After one month, mice were sacrificed for analysis. A. Lymphocytes were isolated from indicated tissues and analyzed for IKKβ expression. B. Tumor samples were immunoblotted to determine expression and phosphorylation of indicated signaling proteins. C,D FVB mice bearing myc-CaP tumors were castrated. Starting one day before castration, the mice (n=10 per group) were injected twice daily with vehicle or AG490, an inhibitor of STAT3 phosphorylation. C. One week after castration, tumors were collected, paraffin-embedded, sectioned and stained with phospho-STAT3 antibody. D. Tumor volume was measured every 2-3 days as above. Results are averages±s.e.m. P values were determined and are indicated as above.
# FIG. 23. LTβ is required for IKKα nuclear localization and STAT3 phosphorylation. Mice carrying Myc-CaP tumors were castrated and treated with vehicle or LTβR-Ig as described above. Paraffin-embedded sections were analyzed for IKKα nuclear localization and STAT3 phosphorylation.
# Mouse prostate and CaP tissues and dissected metastatic tumors were immersed in 10% neutral buffered formalin before sectioning and paraffin embedding. […]
# [3] = test system: myc-CaP tumors; assay: CR-CaP re-growth (tumor volume) of s.c. myc-CaP allografts after castration; type: in vivo, FVB mice; details: castrated mice bearing s.c. myc-CaP tumors
# Procedure: FIG. 4. IKKβ-dependent lymphotoxin production by tumor-infiltrating B cells stimulates IKKα-dependent androgen-free survival. A. RNA from splenic B cells of Ikkβ^F/F and Ikkβ^Δ/Δ mice was analyzed for LTα and LTβ expression as above. Results are averages±s.d. (n=3). B. Lethally irradiated FVB males were reconstituted with BM from B-Ltβ^−/− or T-Ltβ^−/− mice (n=6 per group). After 8 weeks, myc-CaP tumors were established, mice were castrated and tumor volume was measured as above. Results are averages±s.e.m. C. FVB mice (n=6 each group) bearing myc-CaP tumors were castrated and given hIgG or LTβR-Ig (100 μg) every 5 days, starting 4 days before castration. Tumor volume was measured as above. Results are averages±s.e.m. […] Mice were castrated and tumor volume was measured. […] After 6 hrs, the cells were cultured with or without flutamide (10 μM) in the absence or presence of LTα2β1, and cell number was determined. […] After 12 hrs, cells were stimulated for 1 hr with LTα2β1, collected, divided into cytosolic (C) and nuclear (N) fractions and IKKα and histone H3 distribution was determined. In A, B, C, D and E, P values were determined and are indicated as above.
# FIG. 8. […] Five months later, mice were sacrificed and prostate tumor weight and incidence of lymph node, lung and liver metastases were determined. […] Tumor volume in above mice was measured every 2-3 days. […] Tumor volume was measured as above. […]
# [4] = test system: STAT3; assay: STAT3 phosphorylation in IL-6-stimulated Myc-CaP cells (immunoblotting); type: cell-based, mouse; details: 1 hr pre-treatment, IL-6 20 ng/ml 30 min
# Procedure: as §1, §2
Compound,IKK activation (IκBα phosphorylation) [1],STAT3 activation (phosphorylation) in CaP cells of tumors [2],CR-CaP growth / appearance after castration (tumor volume) [3],STAT3 activation (phosphorylation) [4]
N#C/C(=C/c1ccc(O)c(O)c1)C(=O)NCc1ccccc1 [A490],did not inhibit,inhibitable,delayed,–
"COc1c(Cl)cc2c([nH]c3cnccc32)c1NC(=O)c1cccnc1C [ML120B, N-(6-chloro-7-methoxy-9H-β-carbolin-8-yl)-2-methylnicotinamide]",–,–,–,did not inhibit
